Read-outs that look alike come from different tables or passages of the source.
Columns and labels:
[1] = system: NRF2 (nuclear factor erythroid 2-related factor 2); experiment: NRF2 +/-GSH activation assay (DiscoverX PathHunter NRF2 translocation kit, U2OS cells); assay type: cell-based; settings: for NRF2 activation +GSH Emax / NRF2 activation −GSH Emax / −GSH Emax: normalised to DMF high control
Outline: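 Activation is expressed as percent of plate DMF (high) versus no-DMF (low) controls, from luminescence after 6 h compound exposure at 37 °C of U2OS PathHunter cells. The +GSH condition used compound pre-incubated 30 min in 6 mM working GSH; −GSH cells received compound directly.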

[2] = Hepatocyte stability assay, mouse; assay type: in vitro ADME; settings: mouse, hepatocytes; for hepatocyte CLint at 10 μM: Hepatocyte stability Clint; for half-life at 10 μM: Hepatocyte stability T½
Outline: (§1)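 Thawed cryopreserved hepatocytes (viability >70%) at 0.5×10^6 cells/mL in Leibovitz buffer were preincubated at 37° C, then given 10 μM compound (0.1% DMSO) in duplicate. Samples at 0–60 min were quenched in acetonitrile and analysed by LC-MS/MS. Intrinsic clearance and half-life were derived from ln % remaining versus time.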

[3] = system: IL-1β cytokine output from THP-1s; experiment: THP-1 AlphaLISA IL-1β cytokine inhibition assay; assay type: cell-based; settings: Homo sapiens
Outline: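 IL-1β release by AlphaLISA, expressed as % inhibition against +/− LPS controls on each plate. Differentiation: PMA, 72 h. Sequence: 30 min compound pre-treatment, LPS 24 h, Nigericin 1 h before supernatant harvest, all at 37° C./5% CO2.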

[4] = Hepatocyte stability assay, human; assay type: in vitro ADME; settings: human, hepatocytes; for hepatocyte CLint at 10 μM: Hepatocyte stability Clint; for half-life at 10 μM: Hepatocyte stability T½
Outline: as §1

[5] = system: IL-6 cytokine output from THP-1s; experiment: THP-1 AlphaLISA IL-6 cytokine inhibition assay; assay type: cell-based; settings: Homo sapiens, LPS then nigericin
Outline: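 THP-1 cells differentiated with PMA for 72 h, then pre-incubated with compound 30 min, stimulated with LPS 24 h, then Nigericin 1 h, all at 37° C. Supernatant IL-6 measured by AlphaLISA. Percentage inhibition normalized to +/− LPS plate controls.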

[6] = +GSH, 30 minute compound-GSH pre-incubation, read-out: NRF2 activation +GSH EC50
[7] = −GSH, U2OS PathHunter cells, 6 hours compound treatment, read-out: NRF2 activation −GSH EC50
[8] = THP-1, differentiated THP-1 cells, LPS then nigericin
[9] = THP-1, differentiated THP-1 cells
[10] = −GSH, Table 5 exo vs endo comparison, read-out: −GSH EC50
[11] = −GSH, Table 5 exo vs endo comparison
[12] = THP-1, Table 3, head to head comparison of exo vs endo double bond compounds

Row | Compound | EC50 [1, 6] [µM] | NRF2 activation +GSH Emax ([1]; +GSH) [%] | EC50 [1, 7] [µM] | NRF2 activation −GSH Emax ([1]; −GSH) [%] | hepatocyte CLint at 10 μM [2] [µL/min/1e6 cells] | half-life at 10 μM [2] [min] | IC50 [3, 8] [µM] | hepatocyte CLint at 10 μM [4] [µL/min/1e6 cells] | half-life at 10 μM [4] [min] | IC50 [5, 9] [µM] | EC50 [1, 10] [µM] | −GSH Emax [1, 11] [%] | IC50 [3, 12] [µM] | NRF2 activation, result in words ([1]; −GSH and/or +GSH) | IC50 ([5]; differentiated THP-1 cells) [µM]
1 | C=C(Cc1nc(Cc2ccc(CCC)cc2)no1)C(=O)O [Example 70, 2-((3-(4-propylbenzyl)-1,2,4-oxadiazol-5-yl)methyl)acrylic acid] | 15.6 | 147 | 13.4 | 188 | 58 | 26 | 25.3 | 13 | 117 | 9.4 |  |  |  |  | 
2 | C=C(Cc1nc(C2(c3ccc(Cl)c(F)c3)CC2)no1)C(=O)O [Example 52, 2-((3-(1-(4-chloro-3-fluorophenyl)cyclopropyl)-1,2,4-oxadiazol-5-yl)methyl)acrylic acid] | > 100 | 40 | 15.2 | 78 | 134 | 10 | 19.4 | 24 | 55 | 25.5 |  |  |  |  | 
3 | C=C(Cc1nc(CCCCCCCCC)no1)C(=O)O [Example 53, 2-((3-nonyl-1,2,4-oxadiazol-5-yl)methyl)acrylic acid] | 1.8 | 71 | 1.8 | 178 | > 460 | < 3 | 1.8 | 329 | 4 | 2.6 |  |  |  |  | 
4 | C=C(Cc1nc(-c2ccc(OCCCC)cc2)no1)C(=O)O [Example 61, 2-((3-(4-butoxyphenyl)-1,2,4-oxadiazol-5-yl)methyl)acrylic acid] | 4.9 | 124 | 3.2 | 198 | 301 | 4 | 13.9 | 52 | 29 | 3.1 | 3.2 | 198 | 13.9 |  | 
5 | C=C(Cc1nc(C(C)CCCCCC)no1)C(=O)O (centres unmarked) [Example 8, 2-((3-(octan-2-yl)-1,2,4-oxadiazol-5-yl)methyl)acrylic acid] | 28.1 | 167 | 20.9 | 175 | 143 | 10 | 16.8 | 28 | 51 | 14 |  |  |  |  | 
6 | C=C(Cc1nc(CCCCCCC)no1)C(=O)O [Example 6, 2-((3-heptyl-1,2,4-oxadiazol-5-yl)methyl)acrylic acid] | 29.1 | 170 | 22.9 | 190 | 185 | 9 | 24.7 | 38 | 31 | 26 |  |  |  |  | 
7 | C=C(Cc1nc(Cc2ccc(C3CCCC3)cc2)no1)C(=O)O [Example 112, 2-((3-(4-cyclopentylbenzyl)-1,2,4-oxadiazol-5-yl)methyl)acrylic acid] | 10.7 | 283 | 7.3 | 284 | 160 | 12 | 14.2 | 25 | 61 | 4.4 |  |  |  |  | 
8 | C=C(Cc1nc(-c2ccc(C3(CCC)CC3)cc2)no1)C(=O)O [Example 72, 2-((3-(4-(1-propylcyclopropyl)phenyl)-1,2,4-oxadiazol-5-yl)methyl)acrylic acid] | 19.5 | 151 | 14.6 | 189 | 28 | 43 | 7 | 69 | 27 | 4.4 |  |  |  |  | 
9 | C/C(=C\c1nc(C2(c3ccc(Br)cc3)CC2)no1)C(=O)O [Example 168] | > 100 | 16 | 1.4 | 69 | 393 | 5 | 33.6 | 69 | 18 |  | 1.4 | 69 | 33.6 | more potent in NRF2 (-GSH) than Example 50 | 51.2
10 | C=C(Cc1nc(-c2ccc(CCCCC(F)(F)F)cc2)no1)C(=O)O [Example 75, 2-((3-(4-(5,5,5-trifluoropentyl)phenyl)-1,2,4-oxadiazol-5-yl)methyl)acrylic acid] | 7.1 | 188 | 4.8 | 263 | 480 | 4 | 13.7 | 80 | 15 | 3.1 |  |  |  |  | 
11 | C=C(Cc1nc(C(F)(F)c2ccc(Cl)cc2)no1)C(=O)O [Example 74, 2-((3-((4-chlorophenyl)difluoromethyl)-1,2,4-oxadiazol-5-yl)methyl)acrylic acid] | 44.4 | 65 | 24.4 | 174 | 31 | 47 | 6.4 | < 3 | > 430 | 9 |  |  |  |  | 
12 | C=C(Cc1nc(Cc2ccc(OCCCC)cc2)no1)C(=O)O [Example 51, 2-((3-(4-butoxybenzyl)-1,2,4-oxadiazol-5-yl)methyl)acrylic acid] | 6.7 | 181 | 4.6 | 269 | 278 | 5 | 53.4 | 24 | 55 | 5.3 |  |  |  |  | 
13 | C=C(Cc1nc(C(F)(F)CCCCCCC)no1)C(=O)O [Example 88, 2-((3-(1,1-difluorooctyl)-1,2,4-oxadiazol-5-yl)methyl)acrylic acid] | 3 | 205 | 2.8 | 237 | > 460 | < 3 | 3.1 | 134 | 12 | 2.8 |  |  |  |  | 

Reference: patent US12617762B2, “Carboxy derivatives with antiinflamatory properties” (Sitryx Therapeutics Limited, priority 2019, dated 2026)
